Data taken from patent US20140370510A1, “MODULATION OF PEPTIDOME USING HISTONE DEACETYLASE INHIBITOR” (University of South Florida (A Florida Non-Profit …, priority 2012, published 2014).

Key:
Format in all cases: cell-based
[1] = test system: CLIP occupancy of MHC class II (HLA-DR) on CIITA-4 melanoma cells, WM9 melanoma cells and Raji B cells; assay: Flow cytometry of surface CLIP and HLA-DR (CLIP/HLA-DR ratio) after HDACi treatment; details: 5 μM Entinostat or 3 μM Vorinostat, 40 hours, vs DMSO
Description: To determine whether HDACi's could affect anti-tumor immunity, major histocompatibility (MHC) class II positive melanoma cells were treated with HDACi's and assayed for potential alterations in the binding of MHC class II to antigenic peptides. More specifically, melanoma cells were treated with Entinostat or Vorinostat, two HDACi's currently used to treat patients. The CIITA-4 melanoma cells were previously transformed with an expression vector for the MHC class II transactivator, CIITA, which leads to constitutive MHC class II expression. The WM9 melanoma cells have naturally occurring CIITA and MHC class II expression. Raji B cells also constitutively express both CIITA and MHC class II.
Cells were cultured in RPMI (antibiotic supplements and 10% fetal calf serum) and treated with either DMSO, 5 μM Entinostat, 3 μM Vorinostat, or 400 units/ml IFN-γ. […] Surface expression of HLA-DR, the most significant MHC class II protein, was detected using flow cytometry. Surface expression of the class II associated invariant chain peptide (CLIP) was also detected using flow cytometry. […]
Samples were analyzed on a BD LSR II flow cytometer (San Jose, Calif.) equipped with 405 nm, 488 nm and 633 nm lasers using BD FacsDiva 6.1.3 software. FITC, PE and DAPI dyes were detected using 530/30, 575/26 and 450/50 band pass filters, respectively. […]

[2] = test system: cathepsin L1 mRNA in Raji B-cells; assay: RT-PCR assay of cathepsin L1 mRNA in Raji B-cells; details: normalized to GAPDH mRNA and DMSO, 40 hours
Description: (§1) An RT-PCR assay of cathepsin L1 mRNA was performed in treated Raji B-cells. More specifically, RNA was extracted from the DMSO, Entinostat, Vorinostat, and IFN-γ treated Raji B-cells described in Example 1 using an RNeasy Mini Kit< Qiagen cat #74106. RNA quality was verified using a bioanalyzer (Agilent). Reverse transcription of total RNA (1 μg) to cDNA was done with a High Capacity RNA-to-cDNA Master Mix (Applied Biosystems part of Life Technologies, Foster City, Calif., catalog number 4390777). In a 0.2 ml PCR tube, 5×Complete Master Mix (4.0 μl) and nuclease-free H20 were mixed with 1 μg RNA for a total reaction volume of 20 μL. The sample was incubated at 25° C. for 5 minutes, 42° C. for 30 minutes and then 85° C. for 5 minutes in a DNA Engine Peltier thermal cycler (Bio-Rad). qPCR target related: cathepsin L1, CTSL1, RefSeq-NM13 001912.4, amplicon length-85 bp, Assay ID Details-Hs00377632_ml; Cathepsin S, CTSS, RefSeq-NM_004079.4, amplicon length-70 bp, Assay ID Details Hs00175407_ml; GAPDH-glyceraldehyde-3-phosphate dehydrogenase, Gapdh, RefSeq-NM_00246.3, amplicon length-58 bp, Assay ID Details-Hs03929097_gl.
(§2) All primers and probes were from Applied Biosystems Assay-on-Demand. […] The GAPDH was used as an endogenous control for relative qPCR quantification. […]

[3] = test system: cathepsin L1 mRNA in WM9 melanoma cells; assay: RT-PCR assay of cathepsin L1 mRNA in WM9 melanoma cells; details: normalized to GAPDH mRNA and DMSO
cathepsin S mRNA = assay: RT-PCR assay of cathepsin S mRNA; details: normalized to GAPDH mRNA and DMSO
Description: as §1, §2

Cathepsin L1 = Cathepsin L1 antibody (ctsl1) staining intensity, bright field microscopy; details: 5 μM Entinostat vs DMSO; p-value <0.0004
Description: In FIG. 6, samples were viewed with a Leica DMLB upright bright field microscope and a 20×/0.5NA HC PL fluortar objective (Leica Microsystems GmbH, Wetzlar, Germany). Transmitted bright light was used without contrasting methods. Gain, offset, and other acquisition settings were identical for all samples within each group. The number of nuclei was determined with auto-threshold segmentation on the cell morphology. The nuclei segmentation was further refined by size and shape of the objects created from the initial segmentation. ImagePro Plus v6.1 (Media Cybernetics, Bethesda, Md.) software was then used to determine the ctsl1 staining intensity (ctsl1 is cathepsin L1 antibody). Positive cells were established as >20DR over background for each 8bit image (0-255DR). The number of pixels over this threshold per cell was used to determine the differences between the Entinostat and DMSO groups. Each image and analysis was blinded and completed in triplicate (p-value <0.0004).

| SMILES | amount of CLIP associated with MHC Class II on the APC surface (CLIP occupancy) [1] | cathepsin L1 mRNA induction [2] | cathepsin L1 mRNA induction [3] | cathepsin S mRNA induction (cathepsin S mRNA) | induction of Cathepsin L1 (ctsl1 staining intensity, FIG. 5) (Cathepsin L1) |
| --- | --- | --- | --- | --- | --- |
| Nc1ccccc1NC(=O)c1ccc(CNC(=O)OCc2cccnc2)cc1 [Entinostat] | reduction in the amount of CLIP | induces cathepsin L1 mRNA | induces cathepsin L1 mRNA | no effect | significant induction |
| O=C(CCCCCCC(=O)Nc1ccccc1)NO [Vorinostat, Suberoylanilide hydroxamic acid] | reduction in the amount of CLIP | no effect | no effect | no effect | – |
